Tests used:
Format in all cases: in vivo
Conditions in all cases: 250 g/ha, evaluated after 13 days
[1] = tested on: Echinochloa crus-galli (ECHCG); test: Post-emergence Test, glasshouse, ECHCG
Description: (§1) Seeds of a variety of test species are sown in standard soil in pots Amaranthus retoflexus (AMARE), Echinochloa crus-galli (ECHCG), Setaria faberi (SETFA)). After cultivation for one day (pre-emergence) or after 8 days cultivation (post-emergence) under controlled conditions in a glasshouse (at 24/16° C., day/night; 14 hours light; 65% humidity), the plants are sprayed with an aqueous spray solution derived from the formulation of the technical active ingredient in acetone/water (50:50) solution containing 0.5% Tween™ 20 (polyoxyethelyene sorbitan monolaurate, CAS RN 9005-64-5). Compounds are applied at 250 g/ha unless otherwise stated. The test plants are then grown in a glasshouse under controlled conditions in a glasshouse (at 24/16° C., day/night; 14 hours light; 65% humidity) and watered twice daily. After 13 days for pre- and post-emergence, the test is evaluated for the percentage damage caused to the plant. The biological activities are shown in the following table on a five-point scale (5=81-100%; 4=61-80%; 3=41-60%; 2=21-40%; 1=0-20%).

[2] = tested on: IPOHE; test: Post-emergence Test, glasshouse, IPOHE
Description: as §1

[3] = tested on: ABUTH; test: Post-emergence Test, glasshouse, ABUTH
Description: as §1

[4] = tested on: Amaranthus retoflexus (AMARE); test: Post-emergence Test, glasshouse, AMARE
Description: as §1

[5] = tested on: Amaranthus retoflexus (AMARE); test: Pre-emergence Test, glasshouse, AMARE
Description: as §1

[6] = tested on: Setaria faberi (SETFA); test: Pre-emergence Test, glasshouse, SETFA
Description: as §1

[7] = tested on: ABUTH; test: Pre-emergence Test, glasshouse, ABUTH
Description: as §1

[8] = tested on: IPOHE; test: Pre-emergence Test, glasshouse, IPOHE
Description: as §1

[9] = tested on: Setaria faberi (SETFA); test: Post-emergence Test, glasshouse, SETFA
Description: as §1

[10] = tested on: Echinochloa crus-galli (ECHCG); test: Pre-emergence Test, glasshouse, ECHCG
Description: as §1

| Compound | percentage damage caused to the plant, five-point scale, ECHCG [1] | percentage damage caused to the plant, five-point scale, IPOHE [2] | percentage damage caused to the plant, five-point scale, ABUTH [3] | percentage damage caused to the plant, five-point scale, AMARE [4] | percentage damage caused to the plant, five-point scale, AMARE [5] | percentage damage caused to the plant, five-point scale, SETFA [6] | percentage damage caused to the plant, five-point scale, ABUTH [7] | percentage damage caused to the plant, five-point scale, IPOHE [8] | percentage damage caused to the plant, five-point scale, SETFA [9] | percentage damage caused to the plant, five-point scale, ECHCG [10] |
| --- | --- | --- | --- | --- | --- | --- | --- | --- | --- | --- |
| FC(F)(F)CCCn1ncc2cc(Br)cc(Oc3ncc(Cl)cn3)c21 [Compound 1.011, 5-bromo-7-(5-chloropyrimidin-2-yl)oxy-1-(4,4,4-trifluorobutyl)indazole] | 1 (1=0-20%) | 1 (1=0-20%) | 1 (1=0-20%) | 3 (3=41-60%) | 1 (1=0-20%) | 1 (1=0-20%) | 1 (1=0-20%) | 1 (1=0-20%) | 1 (1=0-20%) | 1 (1=0-20%) |
| COc1cc(Oc2cccc3cnn(CCCC(F)(F)F)c23)ncn1 [Compound 1.012] | 1 (1=0-20%) | 1 (1=0-20%) | 1 (1=0-20%) | 1 (1=0-20%) | 2 (2=21-40%) | 1 (1=0-20%) | 1 (1=0-20%) | 1 (1=0-20%) | 1 (1=0-20%) | 1 (1=0-20%) |
| FC(F)(F)CCCn1ncc2c(Cl)ccc(Oc3ncc(Cl)cn3)c21 [Compound 1.013, 4-chloro-7-(5-chloropyrimidin-2-yl)oxy-1-(4,4,4-trifluorobutyl)indazole] | 5 (5=81-100%) | 2 (2=21-40%) | 5 (5=81-100%) | 5 (5=81-100%) | 5 (5=81-100%) | 5 (5=81-100%) | 2 (2=21-40%) | 1 (1=0-20%) | 5 (5=81-100%) | 5 (5=81-100%) |
| N#Cc1cc(Cl)cnc1Oc1cccc2cnn(CCCC(F)(F)F)c12 [Compound 1.014] | 2 (2=21-40%) | 2 (2=21-40%) | 4 (4=61-80%) | 4 (4=61-80%) | 4 (4=61-80%) | 4 (4=61-80%) | 1 (1=0-20%) | 1 (1=0-20%) | 3 (3=41-60%) | 4 (4=61-80%) |
| FC(F)(F)CCCn1nc(Br)c2c(Br)ccc(Oc3ncc(Cl)cn3)c21 [Compound 1.015] | 2 (2=21-40%) | 1 (1=0-20%) | 4 (4=61-80%) | 4 (4=61-80%) | 2 (2=21-40%) | 1 (1=0-20%) | 1 (1=0-20%) | 1 (1=0-20%) | 2 (2=21-40%) | 1 (1=0-20%) |
| FC(F)(F)CCCn1nc(Br)c2cc(Br)cc(Oc3ncc(Cl)cn3)c21 [Compound 1.016] | 1 (1=0-20%) | 1 (1=0-20%) | 2 (2=21-40%) | 4 (4=61-80%) | 1 (1=0-20%) | 1 (1=0-20%) | 1 (1=0-20%) | 1 (1=0-20%) | 1 (1=0-20%) | 1 (1=0-20%) |
| N#Cc1cc(Cl)cnc1Oc1cc(Cl)cc2cnn(CCCC(F)(F)F)c12 [Compound 1.017] | 1 (1=0-20%) | 1 (1=0-20%) | 1 (1=0-20%) | 4 (4=61-80%) | 1 (1=0-20%) | 1 (1=0-20%) | 1 (1=0-20%) | 1 (1=0-20%) | 1 (1=0-20%) | 1 (1=0-20%) |
| FC(F)(F)CCCn1nc(Cl)c2c(Cl)c(Br)cc(Oc3ncc(Cl)cn3)c21 [Compound 1.019] | 2 (2=21-40%) | 1 (1=0-20%) | 1 (1=0-20%) | 4 (4=61-80%) | 1 (1=0-20%) | 1 (1=0-20%) | 1 (1=0-20%) | 1 (1=0-20%) | 2 (2=21-40%) | 1 (1=0-20%) |
| Fc1cc(Cl)cnc1Oc1ccc(Cl)c2cnn(CCCC(F)(F)F)c12 [Compound 1.031] | 1 (1=0-20%) | 1 (1=0-20%) | 1 (1=0-20%) | 4 (4=61-80%) | 1 (1=0-20%) | 1 (1=0-20%) | 1 (1=0-20%) | 1 (1=0-20%) | 1 (1=0-20%) | 1 (1=0-20%) |
| COc1nn(CCCC(F)(F)F)c2c(Oc3ncc(Cl)cn3)cccc12 [Compound 1.033, 7-(5-chloropyrimidin-2-yl)oxy-3-methoxy-1-(4,4,4-trifluorobutyl)indazole] | 1 (1=0-20%) | 1 (1=0-20%) | 1 (1=0-20%) | 1 (1=0-20%) | 2 (2=21-40%) | 1 (1=0-20%) | 1 (1=0-20%) | 1 (1=0-20%) | 1 (1=0-20%) | 1 (1=0-20%) |
